“Also recorded” adds a separate entry of the source.
Columns and labels:
[1] = test system: adult male rats; experiment: Postincisional hypersensitivity model of postoperative pain (paw incision, withdrawal threshold to von Frey filaments); assay type: in vivo, rat; settings: intrathecal (i.t.) single drug; for anti-hypersensitivity effect (mechanical hypersensitivity), single drug: 24 h after paw incision surgery, 210 min observation
Method: Animal preparation: Following Animal Care and Use Committee approval, an intrathecal (i.t.) catheter with tip in the lumbar space is inserted as previously described in adult male rats weighing 250 g (Yaksh and Rudy, Physiol Behav. 1976, 7, 1032-1036). One week following the insertion of the i.t. catheter, paw incision surgery is performed as previously described (Brennan et al., Pain 1996, 64, 493-501). Briefly, animals are anesthetized with halothane, and a 1-cm long incision is made in the plantar aspect of the left hind paw starting 0.5 cm from the edge of the heel toward the toe after sterile preparation with 70% ethanol. The plantaris muscle is elevated and incised longitudinally. The wound is closed with 2 mattress sutures of 5.0 silk. Subsequently, withdrawal threshold to von Frey filaments is determined one day after surgery (Chaplanet al., J. Neurosci. Methods, 1994, 53, 55-63). For all testing but pilot dose ranging studies, investigators are blinded to study drug administration. A cut off value of 22 g is used.
Experimental Design: Twenty-four hours after paw incision surgery, single drugs and their combinations are studied: T-62, morphine and NBQX.
Single drug injection: For single drug administration, a volume containing 5 μL drug is used, followed by 10 μL of saline. The anti-hypersensitivity effects for single drugs at three doses with logarithmic spacing are studied over a 210 min observation period with testing at 30 min interval. Dose response curves are first constructed, and ED40 values for single drugs are then determined at the time of peak effect.
Drug interaction: For the combination of T-62 with morphine and NBQX, two injections are performed since the time of peak effect for morphine and NBQX is 30 min earlier than that of T-62 (T-62 is injected 30 min before drug injections). Paw withdrawal thresholds are determined before surgery, before drug injection, and 30, 60, 90, 120, 150, 180, and 210 min after the second drug injection. In addition, a fixed fractional dose ratio of 1:1 (w:w) is used for the combination of T-62 with morphine and NBQX. The dose response curves are then constructed for the combined drugs, and the ED40 values of the combined drugs are calculated at the time point of peak effect. Subsequently, isobolograms are constructed based on the ED40 values from single and combined drug administration.
Materials: T-62 may be obtained from King Pharmaceuticals (Cary, N.C.). T-62 is dissolved in saline with 20% DMSO. Morphine may be purchased from Astra Pharmaceutical Products, Inc. (Westborough, Mass.). NBQX and the remaining chemicals may be purchased from Sigma Chemical Co. (St. Louis, Mo.). Saline is used as vehicle for morphine and NBQX.
Data analysis: Data are presented as mean ±S.E. Withdrawal threshold data are analyzed by two-way analysis of variance followed by Fisher's LSD test. P<0.05 is considered significant. Isobolograms are statistically analyzed by student T test.

[2] = molecular target: T1, adenosine A1 receptors (Rattus norvegicus, UniProt P25099); settings: from Li et al., Pan et al., U.S. Pat. No. 6,248,774 and 6,489,356; cited from earlier work
T1 sequence (P25099 1-326): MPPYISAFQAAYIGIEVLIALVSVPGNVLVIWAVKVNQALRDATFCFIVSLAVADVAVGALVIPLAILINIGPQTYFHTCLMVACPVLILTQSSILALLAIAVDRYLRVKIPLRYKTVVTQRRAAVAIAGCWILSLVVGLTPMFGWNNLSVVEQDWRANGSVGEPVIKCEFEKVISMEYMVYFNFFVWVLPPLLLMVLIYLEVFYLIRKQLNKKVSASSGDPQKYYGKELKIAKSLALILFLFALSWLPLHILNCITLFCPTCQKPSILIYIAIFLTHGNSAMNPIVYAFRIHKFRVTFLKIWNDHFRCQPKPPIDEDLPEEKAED

[3] = test system: male Sprague-Dawley rats; experiment: Neuropathic pain model (Chung model, spinal nerve ligation, withdrawal threshold to von Frey filaments); assay type: in vivo, rat; settings: for anti-allodynic effect (withdrawal threshold): single intrathecal injection, at least 4 weeks after spinal nerve ligation, up to 20 hr
Text: Spinal Nerve Ligation: After Animal Care and Use Committee approval, male Sprague-Dawley rats (Harlan, Indianapolis, Ind., USA) weighing 180-200 g undergo anesthesia as previously described by Kim and Chung (Pain 1992, 50, 355-363). Briefly, under general anesthesia with inhalational halothane, the left L5 and L6 spinal nerves are identified through a small laminotomy and tightly ligated. Approximately one week later, an intrathecal catheter is placed under general anesthesia by insertion under direct vision of a polyethylene catheter through a small slit in the dura at the cisterna magnum, and advanced 8.5 cm such that the catheter tip resides in the lower lumbar intrathecal space. Animals are studied approximately one week later. Ligation of the lumbar spinal nerves results in a primarily unilateral increase in the sensitivity to light touch on the operated side. Sensitivity is assessed via application of calibrated von Frey filaments. The withdrawal threshold is determined using an up down method as previously described by Chaplan et al. (J. Neurosci. Methods 1994, 53, 55-63).
Experimental Design: Animals receive, at least 4 weeks after spinal nerve ligation surgery, and at least 1 week after intrathecal catheter insertion, single injections of vehicle (β-cyclodextrin) or the drug substance, using a randomized and blinded protocol. Withdrawal thresholds are determined at intervals for up to 20 hr after injection.

CN1CC[C@]23c4c5ccc(O)c4O[C@H]2[C@@H](O)C=C[C@H]3[C@H]1C5 [Morphine, morphine]
time of peak effect after injection [1]: 30 min
anti-hypersensitivity effect (mechanical hypersensitivity), single drug [1]: reduces mechanical hypersensitivity in a time and dose dependent manner

NS(=O)(=O)c1cccc2c1c([N+](=O)[O-])cc1nc(O)c(O)nc12 [NBQX, 2,3-dihydroxy-6-nitro-7-sulfamoylbenzo(f)quinoxaline]
time of peak effect after injection [1]: 30 min
anti-hypersensitivity effect (mechanical hypersensitivity), single drug [1]: reduces the mechanical hypersensitivity in a time and dose dependent manner

Nc1sc2c(c1C(=O)c1ccc(Cl)cc1)CCCC2 [T-62, (2-amino-4,5,6,7-tetrahydrobenzo[b]thiophen-3-yl)(4-chlorophenyl)methanone]
anti-hypersensitivity effect (mechanical hypersensitivity), single drug [1]: modest effect; also recorded: reduced mechanical hypersensitivity in a time dependent manner
effect on inflammatory and neuropathic pain [2]: reduce inflammatory and neuropathic pain
anti-allodynic effect (withdrawal threshold) [3]: dose-dependent anti-allodynic effects

Nc1sc2c(c1C(=O)c1ccccc1)CCS2 [formula (Ib)]
anti-allodynic effect (withdrawal threshold) [3]: dose-dependent anti-allodynic effects

Nc1sc2c(c1C(=O)c1cccc3ccccc13)CCC2 [formula (Ic)]
relative potency among the three enhancers ([3]; Chung model of chronic neuropathic pain, FIG. 8): most potent
anti-allodynic effect (withdrawal threshold) [3]: dose-dependent anti-allodynic effects

— US20080108603A1, “COMBINATION THERAPY FOR THE TREATMENT OF PAIN” (priority 2006, published 2008)
